{"source": "paper PMC10285260", "about": "“Processive kinetics in the three-step lanosterol 14α-demethylation reaction catalyzed by human cytochrome P450 51A1” (The Journal of Biological Chemistry, 2023)", "key": {"[1]": {"molecular_target": "T1, human P450 51A1 (Homo sapiens, UniProt Q16850)", "T1 sequence (Q16850 1-509)": "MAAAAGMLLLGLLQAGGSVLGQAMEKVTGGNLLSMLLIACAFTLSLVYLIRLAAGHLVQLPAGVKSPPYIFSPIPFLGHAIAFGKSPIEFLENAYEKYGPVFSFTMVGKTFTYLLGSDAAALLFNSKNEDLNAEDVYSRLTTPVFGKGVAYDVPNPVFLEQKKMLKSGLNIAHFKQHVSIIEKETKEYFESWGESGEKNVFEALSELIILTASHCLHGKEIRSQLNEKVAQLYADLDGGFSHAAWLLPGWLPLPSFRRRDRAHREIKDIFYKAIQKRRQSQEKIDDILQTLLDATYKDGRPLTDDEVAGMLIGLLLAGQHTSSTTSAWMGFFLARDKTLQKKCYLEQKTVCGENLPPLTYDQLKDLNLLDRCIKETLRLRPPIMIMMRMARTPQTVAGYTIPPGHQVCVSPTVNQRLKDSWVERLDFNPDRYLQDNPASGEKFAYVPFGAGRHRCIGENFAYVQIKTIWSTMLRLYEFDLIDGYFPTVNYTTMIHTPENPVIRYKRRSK", "assay": "Inhibition of dihydrolanosterol 14-demethylation (oxidation to dihydro FF-MAS)", "format": "biochemical", "set-up": "made in house; host or cells: Escherichia coli", "description": "Agnosterol (Fig. 2) is a common Δ^7,14 contaminant of commercial lanosterol preparations (Fig. S22) ([25], [36]). We also encountered this molecule and its derivatives, with its characteristic UV spectra derived from our synthesis beginning with 7-dehydrocholesterol (Figs. S1 and S17). The most likely entry point is the m-chloroperbenzoic acid epoxidation (Fig. S1, step 7) ([37]). […] The contaminant could be removed by preparative HPLC (C18, CH3CN, see Supporting Information).\nepi-Dihydrolanosterol, which appears to be an obscure natural product ([32]), was recovered as a side product in one of the synthetic steps and shown to bind to human P450 51A1 tightly and be demethylated at a similar rate as the common β-hydroxy isomer (Figs 5B and 7A), behavior similar to that earlier reported for the yeast (Saccharomyces cerevisiae) enzyme ([34]). An H-bond between the sterol C3-OH and the main chain oxygen of a P450 51 residue preceding the beginning of the β1-4 strand is observed in four P450 51 structures in the Protein Data Bank: Trypanosoma brucei [3P99] ([48]), Trypanosoma cruzi [6FMO] ([49]), human [6UEZ] ([19]), plus a sterol-forming bacterium, Methylococcus capsulatus [7SNM] ([50]). Whether this interaction is replaced by another with epi-lanosterol is presently a point of conjecture and future research. […]"}, "[2]": {"molecular_target": "T1, human P450 51A1", "assay": "Oxidation of dihydroagnosterol by human P450 51A1 (LC-UV)", "format": "biochemical", "set-up": "made in house; host or cells: Escherichia coli", "experimental": "The possibility existed that this molecule could be a substrate. […] However, on the basis of the UV and mass spectra and literature precedents ([38], [39]), we have assigned the structure as 4,4′-dimethylcholesta-7,9,14-trienol. The UV spectrum retains (Fig. 6) the detailed chromophore of agnosterol (Fig. S23) plus an additional transition at higher wavelength, as expected based on the UV spectrum of FF-MAS (Fig. S18).\nFigure 6 Oxidation of dihydroagnosterol by human P450 51A1. The incubation included 0.1 μM P450 51A1 and 10 μM dihydroagnosterol and ran for 10 min at 37 °C in the absence and presence of NADPH. The products were extracted and analyzed by UPLC-UV and UPLC-MS. A, UPLC chromatogram (UV, 192 and 245 nm). B, mass spectrum [M+H-H2O]^+, calculated for C29H45, 393.3516; found, 393.3493 (−5.9 ppm) and assigned structure. C, UV spectrum (from tR 7.3 min peak of A). UPLC, ultra-performance liquid chromatography."}}}
{"smiles": "CC(C)CCCC(C)[C@H]1CC[C@@]2(C)C3=CCC4C(C)(C)[C@@H](O)CC[C@]4(C)C3=CC[C@]12C", "note": "(stereo partly drawn) [dihydroagnosterol]", "values": [{"measurement": "IC50", "setting": "[1]", "result": "≥ 10", "unit": "µM"}, {"measurement": "rate of disappearance relative to that of dihydrolanosterol", "setting": "[2]", "result": "one-half"}, {"measurement": "rate of disappearance", "setting": "[2]; 0.1 μM P450 51A1, 10 μM dihydroagnosterol, 37 °C", "result": "~10", "unit": "min⁻¹"}]}
